In US20110082182A1, “THERAPEUTIC ANTIVIRAL PEPTIDES” (INTERMUNE, INC., priority 2009, published 2011):
pEC50, pIC50: −log10 of the molar value.

Key:
[1] = biological target: T1, NS3/NS4A-2 (full-length HCV NS3 protease) (Hepatitis C virus genotype 1a, UniProt P27958); test: NS3 Inhibition Assay (NS3-NS4 protease assay, RETS1 substrate, fluorescence kinetic read); type: biochemical; conditions: NS3/NS4A-2 protease
T1 construct: Recombinant E. coli or Baculovirus full-length NS3 was diluted to 3.33 μM with assay buffer; made in house; host or cells: E. coli or baculovirus (BV) expression
T1 sequence (P27958 1027-1657): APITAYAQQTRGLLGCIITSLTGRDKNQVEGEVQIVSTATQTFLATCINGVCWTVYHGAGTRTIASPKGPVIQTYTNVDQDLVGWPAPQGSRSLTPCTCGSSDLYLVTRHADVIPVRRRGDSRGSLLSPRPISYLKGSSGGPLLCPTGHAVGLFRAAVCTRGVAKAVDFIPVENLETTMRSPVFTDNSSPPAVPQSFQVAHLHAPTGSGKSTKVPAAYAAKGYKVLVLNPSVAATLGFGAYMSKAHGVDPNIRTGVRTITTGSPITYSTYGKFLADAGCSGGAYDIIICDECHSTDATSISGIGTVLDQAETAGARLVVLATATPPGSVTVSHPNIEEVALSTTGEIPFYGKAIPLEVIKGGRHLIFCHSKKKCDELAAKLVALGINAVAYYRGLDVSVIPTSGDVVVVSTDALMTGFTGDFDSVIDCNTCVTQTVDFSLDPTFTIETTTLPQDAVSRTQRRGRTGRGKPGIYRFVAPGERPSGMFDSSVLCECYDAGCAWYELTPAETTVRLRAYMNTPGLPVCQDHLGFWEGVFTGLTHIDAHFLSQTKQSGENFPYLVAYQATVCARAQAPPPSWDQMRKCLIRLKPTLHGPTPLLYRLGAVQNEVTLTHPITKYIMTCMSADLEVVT
Procedure: NS3 Complex Formation with NS4A-2.
Recombinant E. coli or Baculovirus full-length NS3 was diluted to 3.33 μM with assay buffer and the material was transferred to an eppendorf tube and placed in a water bath in a 4° C. refrigerator. The appropriate amount of NS4A-2 diluted to 8.3 mM in assay buffer was added to an equal the volume of NS3 above (conversion factor—3.8 mg/272 μL assay buffer). The material was transferred to an eppendorf tube and placed in water bath in a 4° C. refrigerator.
After equilibration to 4° C., equal volumes of NS3 and NS4A-2 solutions were combined in an eppendorf tube, mixed gently with a manual pipettor, and incubated for 15 minutes in the 4° C. water bath. Final concentrations in the mixture are 1.67 μM NS3, 4.15 mM NS4A-2 (2485-fold molar excess NS4A-2).
After 15 minutes at 4° C., the NS3/NS4A-2 eppendorf tube was removed and placed in a room temperature water bath for 10 minutes. NS3/NS4A-2 was aliquoted at appropriate volumes and stored at −80° C. (E. coli NS3 run at 2 nM in assay, aliquot at 25 μL. BV NS3 run at 3 nM in assay, aliquot at 30 μL).
Step a. Sample compounds were dissolved to 10 mM in DMSO then diluted to 2.5 mM (1:4) in DMSO. Typically, compounds were added to an assay plate at 2.5 mM concentration, yielding upon dilution a starting concentration of 50 μM in the assay inhibition curve. Compounds were serial diluted in assay buffer to provide test solutions at lower concentrations.
Step 1. The E. coli. NS3/NS4A-2 was diluted to 4 nM NS3 (1:417.5 of 1.67 μM stock−18 μL 1.67 μM stock+7497 μL assay buffer). […]
The plate was read in kinetic mode on the Molecular Devices SpectraMax Gemini XS plate reader. Reader settings: Read time: 30 minutes, Interval: 36 seconds, Reads: 51, Excitation λ: 335 nm, Emission λ: 495 nm, cutoff: 475 nm, Automix: off, Calibrate: once, PMT: high, Reads/well: 6, Vmax pts: 21 or 28/51 depending on length of linearity of reaction
IC50s are determined using a four parameter curve fit equation, and converted to Ki's using the following Km's: […]

[2] = test system: HCV sub-genomic replicon (I377/NS3-3') in HuH-7 hepatoma cells (GS4.3); test: Quantitation by ELISA of NPTII in the HCV sub-genomic replicon, GS4.3; type: cell-based; conditions: Hepatitis C virus, GS4.3 replicon cells, 72 h
From the text: Quantitation by ELISA of the Selectable Marker Protein, Neomycin Phosphotransferase II (NPTII) in the HCV Sub-Genomic Replicon, GS4.3
The HCV sub-genomic replicon (I377/NS3-3′, accession No. AJ242652), stably maintained in HuH-7 hepatoma cells, was created by Lohmann et al. Science 285: 110-113 (1999). The replicon-containing cell culture, designated GS4.3, was obtained from Dr. Christoph Seeger of the Institute for Cancer Research, Fox Chase Cancer Center, Philadelphia, Pa.
GS4.3 cells were maintained at 37° C., 5%CO2, in DMEM (Gibco 11965-092) supplemented with L-glutamine 200 mM (100×) (Gibco25030-081), non-essential amino acids (NEAA) (Biowhittaker 13-114E), heat-inactivated (HI) Fetal Bovine Serum (FBS) (Hyclone SH3007.03) and 750 μg/mL geneticin (G418) (Gibco 10131-035). Cells were sub-divided 1:3 or 4 every 2-3 days.
24 h prior to the assay, GS4.3 cells were collected, counted, and plated in 96-well plates (Costar 3585) at 7500 cells/well in 100 μL standard maintenance medium (above) and incubated in the conditions above. To initiate the assay, culture medium was removed, cells were washed once with PBS (Gibco 10010-023) and 90 μl Assay Medium (DMEM, L-glutamine, NEAA, 10% HI FBS, no G418) was added. Inhibitors were made as a 10× stock in Assay Medium, (3-fold dilutions from 10 μM to 56 pM final concentration, final DMSO concentration 1%), 10 μL were added to duplicate wells, plates were rocked to mix, and incubated as above for 72 h.
An NPTII Elisa kit was obtained from AGDIA, Inc. (Compound direct ELISA test system for Neomycin Phosphotransferase II, PSP 73000/4800). Manufacturer's instructions were followed, with some modifications. 10× PEB-1 lysis buffer was made up to include 500 μM PMSF (Sigma P7626, 50 mM stock in isopropanol). […] Plates were read at 450 nm on a Molecular Devices Versamax plate reader.
Inhibitor effect was expressed as a percentage of DMSO-treated control signal, and inhibition curves were calculated using a 4-parameter equation: y=A+4B−A)/(1+((C/x)̂C))), where C is half-maximal activity or EC50.

Structure (SMILES)	pIC50 [1]	pEC50 [2]
CC[C@@H]1C[C@@]12NC(=O)[C@@H]1C[C@H](CN1C(=O)[C@@H](NC(=O)OC(C)(C)C)C(C)(C)C)Oc1nc3ccccc3n1CCCCCCCC1(CC1)S(=O)(=O)NC2=O [Compound 6]	6.00 to 7.00	< 6.00
CC[C@@H]1C[C@@]12NC(=O)[C@@H]1C[C@H](CN1C(=O)[C@@H](NC(=O)OC(C)(C)C)C(C)(C)C)Oc1nc3ccccc3n1C/C=C\CCCC1(CC1)S(=O)(=O)NC2=O [Compound 1]	> 7.00	< 6.00
CC[C@@H]1C[C@@]12NC(=O)[C@@H]1C[C@H](CN1C(=O)[C@@H](NC(=O)OC(C)(C)C)C(C)(C)C)Oc1nc3ccccc3n1CCC/C=C\CCC1(CC1)S(=O)(=O)NC2=O [Compound 5]	> 7.00	< 6.00
